Results taken from patent US11950594B2, “Methods and compositions for inhibiting formation of biofilms” (INSTITUTE OF MICROBIOLOGY, CHINESE ACADEMY OF SCIENCES, priority 2019, dated 2024).

What was measured:
[1] = system: Pseudomonas aeruginosa PAO1 biofilm; assay: Biofilm assay (96-well PVC plate, crystal violet); assay type: cell-based
Description: (§1) 1% inoculation amount of the bacterial solution cultured overnight was inoculated into 100 μL Jensen liquid medium. Different equal amounts of bacteria solution with C1 to C12, respectively, or without any additional substance were cultured in a 96-well polyvinyl chloride (PVC) plate (costar) overnight at 30° C. without agitation.
(§2) The bacterial biomass adsorbed on the 96-well PVC plate was detected by a crystal violet method, and steps were described as below. (1) The non-attached bacteria were removed using a pipettor, then the wells were gently rinsed with normal saline for 3 times. (2) A volume of 120 μL 0.1% crystal violet solution was added to stain the firmly attached bacterial cells in each well, which then staying static at room temperature for 30 min. (3) The PVC plate was taken out, the crystal violet solution was removed with a pipettor, and the non-attached crystal violet solution was washed with normal saline. (4) The crystal violet attached onto the PVC plate was dissolved with 200 μL of 30% acetic acid solution. The OD value of the acetic acid solution in each well was measured at 560 nm with a spectrophotometer.

[2] = system: Pseudomonas aeruginosa PAO1; assay: Growth curve analysis (OD600); assay type: cell-based; conditions: 5 mM C9, LB, 37° C., 24 h
Description: Pseudomonas aeruginosa PAO1 (optical density OD600≈1.5) was cultured in LB liquid medium overnight, and 1% inoculation amount of the bacterial solution was inoculated into a fresh LB liquid medium. Two equal amounts of bacterial solution with and without 5 mM coumarin-chalcone compound C9 were cultured in a shaking incubator with 200 rpm at 37° C. for 24 h. OD value of the bacterial solution at 600 nm was measured every hour with a spectrophotometer to trace bacterial growth.

[3] = system: Staphylococcus aureus biofilm; assay: 96-well plate crystal violet biofilm detection; assay type: cell-based; conditions: FIG. 11
Description: as §1, §2
FIG. 11 is a schematic diagram illustrating an inhibiting effect of a coumarin-chalcone compound C9 on Staphylococcus aureus and Escherichia coli biofilms. […]

[4] = system: c-di-GMP (PAO1/pCdrA::gfp (ASV)); assay: Intracellular c-di-GMP, indirect, pCdrA::gfp reporter; assay type: cell-based, Pseudomonas aeruginosa; conditions: FIG. 6
From the text: The intracellular c-di-GMP may control the conversion of bacterial lifestyle between plankton and biofilm. In order to analyze an effect of the coumarin-chalcone compound C9 on a concentration of the intracellular c-di-GMP, direct and indirect methods were used to measure the level of c-di-GMP in Pseudomonas aeruginosa.
Since the transcription and expression of the extracellular protein CdrA was related to the intracellular concentration of cyclic diguanylic acid (c-di-GMP), PAO1/pCdrA::gfp^s (ASV) was used to analyze c-di-GMP level indirectly.

pKa by HCl/KOH titration = assay type: physicochemical; conditions: titration with HCl (25 mM) and KOH (25 mM)
Description: (§3) UV-Vis spectral analysis was used to study the stability of the coumarin-chalcone compound C9 at a pH range of 3.4 to 8.4. […] After reaching pH=2, KOH (25 mM) was added slowly until the pH reached 12. In this way, a graph of a relationship between the pH and the volume of KOH added was plotted to find an equivalent point and thus the pKa.

[5] = Stability at different pH, UV-Vis spectral analysis; assay type: physicochemical; conditions: UV absorption, pH range of 3.4 to 8.4
Description: as §3
In the embodiment, the stability of the coumarin-chalcone compound C9 was studied. FIGS. 10A to 10C are schematic diagrams illustrating the stability of a coumarin-chalcone compound C9. […] The UV absorption spectroscopy in the pH range of 3.4 to 8.4 further supported the stability of the coumarin-chalcone compound C9. First, HCl (25 mM) was continually added to the coumarin-chalcone compound C9 (initial pH=6.9) until the pH reached 3.4 (FIG. 10B), resulting in an increase in the strength of an absorption band at 330 nm. […] The stability of the coumarin-chalcone compound C9 indicated a great potential to be an anti-QS and anti-biofilm drug.

PAO1 strains = assay: Bacterial motility assay, swimming plate; assay type: cell-based, Pseudomonas aeruginosa; conditions: 37° C., 24 hours
Description: PAO1 strains were inoculated into a LBNS agar plate and were cultured overnight at 37° C. Single colonies were respectively inoculated on the surface of swimming plates with and without the coumarin-chalcone compound C9, and cultured at 37° C. for 24 hours. Then, a diameter of a translucent area formed by bacterial swimming on each swimming plate was measured.

RhIR = assay: QS gene expression, GFP promoter fusion; assay type: cell-based, Pseudomonas aeruginosa; conditions: FIGS. 8A to 8D
From the text: (§4) The QS system may regulate the formation of biofilm and the expression of multiple virulence factors. Whether the coumarin-chalcone compound C9 influences the QS regulation system was further studied. In the embodiment, a green fluorescent protein (GFP) was used as a reporter gene to examine the influence of the coumarin-chalcone compound C9 on the QS system. In this experiment, the transcription regulator genes (including LasR, RhIR, and PqsR) in three QS systems of Pseudomonas aeruginosa were used to study the gene expression of the QS system. By PCR expansion, promoter regions of the three genes were transcriptionally fused with a promoterless GFP fusion expression vector pProbe-AT, respectively, to construct transcription fusion plasmids that can indicate the expression level of LasR, RhIR, and PqsR genes, which were used as representatives of the expression of the three QS systems.
(§5) The overnight cultured bacterial solution was inoculated into the freshly prepared LB liquid medium to make its OD600 at 0.25, and then cultured for 2 h. Fluorescence was measured at 4 h, 8 h, 12 h, 16 h, 20 h, 24 h, respectively, and the measurement was performed in a 96-well plate. Bacterial growth was monitored by measuring OD600. The gene expression level was normalized by dividing the fluorescence value by the OD600 value of each sample.
(§6) The effects of the coumarin-chalcone compound C9 on the transcription of the three known QS regulators LasR, RhIR, and PqsR were examined by gfp fusion. FIGS. 8A to 8D are schematic diagrams illustrating the inhibition of QS systems in P. aeruginosa by compound C9. The transcription of QS-related genes (LasI, LasR, RhII, RhIR, PqsA, and PqsR) was indicated by the green fluorescent intensity of GFP-tagged promoter region through pPROBE-AT′ plasmid, the data of a blank group, a control group, and an experimental group treated with a coumarin-chalcone compound C9 were presented.

LasR = assay: QS gene expression, GFP promoter fusion; assay type: cell-based, Pseudomonas aeruginosa; conditions: FIGS. 8A to 8D
From the text: as §4, §5, §6

PqsR = assay: QS gene expression, GFP promoter fusion; assay type: cell-based, Pseudomonas aeruginosa; conditions: FIGS. 8A to 8D
From the text: as §4, §5, §6

Question: With `COc1cccc(/C=C/C(=O)c2cc3ccccc3oc2=O)c1` [Compound C9] as the molecule, how does the “formation of Pseudomonas aeruginosa biofilm” value ([1]; C9 in a range of 1 mM to 5 mM) read?
Answer: significantly inhibited

Question: What about the “reduction of the contents of Pseudomonas aeruginosa PAO1 biofilm” value ([1]; FIG. 1, overnight at 30° C., Jensen medium) of the same molecule?
Answer: 70%

Question: What about the inhibition at 5000 µM ([1]; Pseudomonas aeruginosa, PAO1, concentration of C9 5 mM, read-out: inhibition rate of biofilm) of the same molecule?
Answer: 70%

Question: What about the “effect on growth of Pseudomonas aeruginosa PAO1 (OD600)” value [2] of the same molecule?
Answer: no significant effect

Question: And the “reduction of Staphylococcus aureus biofilm” value [3]?
Answer: 30%

Question: What about the “fluorescence intensity of PAO1/pCdrA::gfp (ASV)” value [4] of the same molecule?
Answer: significantly reduced

Question: What about the pKa (pKa by HCl/KOH titration) of the same molecule?
Answer: 5.66

Question: And the “stability at different pH conditions” value [5]?
Answer: stable at different pH conditions

Question: What about the flagellate-mediated swimming ability (PAO1 strains) of the same molecule?
Answer: no effect

Question: And the “transcription of RhIR” value (RhIR)?
Answer: downregulated

Question: What about the “transcription of LasR” value (LasR) of the same molecule?
Answer: downregulated

Question: What about the “transcription of PqsR” value (PqsR) of the same molecule?
Answer: downregulated
